Measured values: US6699864B2, “Substituted phenyl-piperazine derivatives, their preparation and use” (H. Lundbeck A/S, priority 1999, dated 2004)
Structures can show the parent of a compound that is named as a salt.

Key:
human 5-HT1A receptors = target: T1, human 5-HT1A receptors (Homo sapiens, UniProt P08908); assay: Inhibition of 3H-5-CT binding to human 5-HT1A receptors; conditions: cloned human 5-HT1A receptors expressed in HeLa cells (HA7); 15 minutes at 37° C., pH 7.7
T1 construct: expressed in transfected cells; host or cells: HeLa cells (HA7)
T1 sequence (P08908 1-422): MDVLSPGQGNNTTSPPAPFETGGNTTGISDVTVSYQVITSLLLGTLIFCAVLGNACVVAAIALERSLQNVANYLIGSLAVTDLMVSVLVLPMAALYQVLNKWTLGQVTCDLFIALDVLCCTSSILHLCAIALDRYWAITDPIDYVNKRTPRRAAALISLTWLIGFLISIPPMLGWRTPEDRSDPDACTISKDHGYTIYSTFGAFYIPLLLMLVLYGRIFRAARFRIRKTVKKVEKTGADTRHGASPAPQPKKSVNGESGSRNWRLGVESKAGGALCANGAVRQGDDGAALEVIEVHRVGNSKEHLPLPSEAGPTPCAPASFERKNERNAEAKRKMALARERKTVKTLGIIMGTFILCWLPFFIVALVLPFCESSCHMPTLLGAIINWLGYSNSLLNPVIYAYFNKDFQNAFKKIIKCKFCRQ
Method: The affinity of the compounds of the invention to 5-HT1A receptors was determined by measuring the inhibition of binding of a radioactive ligand at 5-HT1A receptors as described in the following test:
Inhibition of ^3H-5-CT Binding to Human 5-HT1A Receptors.
By this method, the inhibition by drugs of the binding of the 5-HT1A agonist ^3H-5-carboxamido tryptamine (^3H-5-CT) to cloned human 5-HT1A receptors stably expressed in transfected HeLa cells (HA7) (Fargin, A. et al, J. Biol. Chem., 1989, 264, 14848) is determined in vitro. The assay was performed as a modification of the method described by Harrington, M. A. et al, J. Pharmacol. Exp. Ther., 1994, 268, 1098. Human 5-HT1A receptors (40 μg of cell homogenate) were incubated for 15 minutes at 37° C. in 50 mM Tris buffer at pH 7.7 in the presence of ^3H-5-CT. Non-specific binding was determined by including 10 μM of metergoline. The reaction was terminated by rapid filtration through Unifilter GF/B filters on a Tomtec Cell Harvester. Filters were counted in a Packard Top Counter.

[1] = target: T2, 3H-5-HT uptake into whole rat brain synaptosomes (serotonin reuptake) (Rattus norvegicus, UniProt P31652); assay: Inhibition of 3H-5-HT uptake into rat brain synaptosomes; type: biochemical; conditions: for inhibition at 0.1 µM: at 100 nM; for IC50: in vitro
T2 construct: whole rat brain synaptosomes; from tissue; host or cells: whole rat brain synaptosomes
T2 sequence (P31652 whole entry): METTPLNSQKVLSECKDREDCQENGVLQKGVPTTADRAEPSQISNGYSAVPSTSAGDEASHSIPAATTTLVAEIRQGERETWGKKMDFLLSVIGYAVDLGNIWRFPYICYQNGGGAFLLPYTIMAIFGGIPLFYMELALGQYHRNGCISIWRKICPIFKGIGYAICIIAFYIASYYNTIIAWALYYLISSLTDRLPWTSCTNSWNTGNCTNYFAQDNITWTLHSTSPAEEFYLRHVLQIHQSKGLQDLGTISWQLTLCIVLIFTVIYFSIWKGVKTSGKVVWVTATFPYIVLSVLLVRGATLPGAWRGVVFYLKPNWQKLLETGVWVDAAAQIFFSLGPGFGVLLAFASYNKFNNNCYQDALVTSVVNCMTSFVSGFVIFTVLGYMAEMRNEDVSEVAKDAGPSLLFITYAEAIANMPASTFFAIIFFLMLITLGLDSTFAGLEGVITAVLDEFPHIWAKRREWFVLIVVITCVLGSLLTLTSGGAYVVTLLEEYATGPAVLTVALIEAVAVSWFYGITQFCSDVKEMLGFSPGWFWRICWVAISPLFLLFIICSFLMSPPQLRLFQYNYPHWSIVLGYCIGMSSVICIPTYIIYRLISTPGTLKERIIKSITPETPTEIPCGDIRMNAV
Method: Inhibition of ^3H-5-HT Uptake Into Rat Brain Synaptosomes
Using this method, the ability of drugs to inhibit the accumulation of ^3H-5-HT into whole rat brain synaptosomes is determined in vitro. The assay was performed as described by Hyttel, J., Psychopharmacology 1978, 60, 13.

| IC50 (human 5-HT1A receptors) [nM] | inhibition at 0.1 µM [1] [%] | melting point | IC50 [1] [nM] | SMILES |
| --- | --- | --- | --- | --- |
| 28 | 34 |  |  | CCOc1cccc(Oc2ccccc2N2CCN(CCCc3c[nH]c4ccc(C)cc34)CC2)c1 [Compound 5ai, 1-[2-(3-Ethoxyphenoxy)phenyl]-4-[3-(5-methyl-1H-indol-3-yl)propyl]piperazine] |
|  |  | 183 to 189 °C |  | COc1ccccc1Oc1ccccc1N1CCN(CCCc2c[nH]c3ccc(F)cc23)CC1 (as salt: hydrochloride) [Compound 2d, 1-[2-(2-Methoxyphenoxy)Phenyl]-4-[3-(5-Fluoro-1H-Indol-3-Yl)Propyl]Piperazine] |
| 10 |  |  | 4.8 | Fc1ccc2[nH]cc(CCCN3CCN(c4ccccc4Oc4ccccc4)CC3)c2c1 [Compound 5f, 1-(2-Phenoxyphenyl)-4-[3-(5-fluoro-1H-indol-3-yl)propyl]piperazine] |
|  |  | 221 to 228 °C |  | c1ccc(N2CCN(CCc3c[nH]c4ccccc34)CC2)c(Oc2ccc3c(c2)OCO3)c1 (as salt: oxalate) [Compound 1b, 1-[2-(1,3-Benzodioxolan-5-yloxy)phenyl]-4-[2-(1H-indol-3-yl)ethyl]piperazine] |
| 7.8 |  |  | 130 | c1ccc(N2CCN(CCc3c[nH]c4ccccc34)CC2)c(Oc2ccc3c(c2)OCO3)c1 [Compound 1b, 1-[2-(1,3-Benzodioxolan-5-yloxy)phenyl]-4-[2-(1H-indol-3-yl)ethyl]piperazine] |
| 26 | 42 |  |  | c1ccc(N2CCN(CCCc3c[nH]c4ccccc34)CC2)c(Oc2cccc3c2OCCO3)c1 [Compound 5ae, 1-[2-(1,4-Benzodioxan-5-yloxy)phenyl]-4-[3-(1H-indol-3-yl)propyl]piperazine] |
| 10 |  |  | 13 | c1ccc(Oc2ccccc2N2CCN(CCCc3c[nH]c4ccccc34)CC2)cc1 [Compound 5e, 1-(2-Phenoxyphenyl)-4-[3-(1H-indol-3-yl)propyl]piperazine] |
| 16 | 27 |  |  | c1ccc(N2CCN(CCCCc3c[nH]c4ccccc34)CC2)c(Oc2ccc3c(c2)OCO3)c1 [Compound 3c] |
| 13 |  |  | 4.7 | COc1ccccc1Oc1ccccc1N1CCN(CCCc2c[nH]c3ccc(F)cc23)CC1 [Compound 5l, 1-[2-(2-Methoxyphenoxy)phenyl]-4-[3-(5-fluoro-1H-indol-3-yl)propyl]piperazine] |
| 26 |  |  | 23 | Fc1ccc2[nH]cc(CCCN3CCN(c4ccccc4Oc4cccc(N5CCOCC5)c4)CC3)c2c1 [Compound 5ag, 1-{2-[3-(Morpholin-4-yl)phenoxy]phenyl}-4-[3-(5-fluoro-1H-indol-3-yl)propyl]piperazine] |
| 24 | 40 |  |  | Clc1ccc2c(CCN3CCN(c4ccccc4Oc4ccc5c(c4)OCO5)CC3)c[nH]c2c1 [Compound 3e, 1-[2-(1,3-Benzodioxolan-5-yloxy)phenyl]-4-[2-(6-chloro-1H-indol-3-yl)ethyl]piperazine] |
|  |  | 165 °C (dec.) |  | Clc1ccc2c(CCCN3CCN(c4ccccc4Oc4ccc5c(c4)OCO5)CC3)c[nH]c2c1 (as salt: hydrochloride) [Compound 2c, 1-[2-(1,3-Benzodioxolan-5-Yloxy)Phenyl]-4-[3-(6-Chloro-1H-Indol-3-Yl)Propyl]Piperazine] |
| 16 |  |  | 2.8 | c1ccc(N2CCN(CCCc3c[nH]c4ccccc34)CC2)c(Oc2ccc3c(c2)OCO3)c1 [Compound 2b, 1-[2-(1,3-Benzodioxolan-5-Yloxy)Phenyl]-4-[3-(1H-Indol-3-Yl)Propyl]Piperazine] |
| 18 |  |  | 33 | COc1ccccc1Oc1ccccc1N1CCN(CCCc2c[nH]c3c(F)cc(F)cc23)CC1 [Compound 5x, 1-[2-(2-Methoxyphenoxy)phenyl]-4-[3-(5,7-difluoro-1H-indol-3-yl)propyl]piperazine] |
| 10 | 55 |  |  | COc1cccc(OC)c1Oc1ccccc1N1CCN(CCCc2c[nH]c3ccc(Br)cc23)CC1 [Compound 5h, 1-[2-(2,6-Dimethoxyphenoxy)phenyl]-4-[3-(5-bromo-1H-indol-3-yl)propyl]piperazine] |
|  |  | 156 to 162 °C |  | c1ccc(N2CCN(CCCc3c[nH]c4ccccc34)CC2)c(Oc2ccc3c(c2)OCO3)c1 (as salt: oxalate) [Compound 2b, 1-[2-(1,3-Benzodioxolan-5-Yloxy)Phenyl]-4-[3-(1H-Indol-3-Yl)Propyl]Piperazine] |
| 19 |  |  | 14 | Fc1ccc2[nH]cc(CCCN3CCN(c4ccccc4Oc4cccc5c4OCCO5)CC3)c2c1 [Compound 5a, 1-[2-(1,4-Benzodioxan-5-Yloxy)Phenyl]-4-[3-(5-Fluoro-1H-Indol-3-Yl)Propyl]Piperazine] |
| 10 | 46 |  |  | Cc1ccc2[nH]cc(CCCN3CCN(c4ccccc4Oc4cccc(N(C)C)c4)CC3)c2c1 [Compound 5i, 1-(2-[3-(Dimethylamino)phenoxy]phenyl]-4-[3-(5-methyl-1H-indol-3-yl)propyl]piperazine] |
